# Laboratory results reported in PubChem BioAssay (NCI).
#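 Protocol summary: plate cells (96-well), add compound at 5 concentrations, incubate 48 h, interpolate endpoints linearly. GI50 marks 50% less growth. Definition used: TGI = concentration required for complete inhibition of growth.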
# Key:
# Assay in all cases: inhibition of tumour cell growth, NCI panel, 48 h
# [1] = test system: 786-0 renal
# [2] = test system: A498 renal
# [3] = test system: A549 NSCLC
# [4] = test system: ACHN renal
# [5] = test system: BT-549 breast
# [6] = test system: CAKI-1 renal
# [7] = test system: CCRF-CEM leukemia
# [8] = test system: COLO 205 colon
# [9] = test system: DU-145 prostate
# [10] = test system: EKVX NSCLC
# [11] = test system: HCC-2998 colon
# [12] = test system: HCT-116 colon
# [13] = test system: HCT-15 colon
# [14] = test system: HL-60(TB) leukemia
# [15] = test system: HOP-62 NSCLC
# [16] = test system: HOP-92 NSCLC
# [17] = test system: HS 578T breast
# [18] = test system: HT29 colon
# [19] = test system: IGROV1 ovarian
# [20] = test system: K-562 leukemia
# [21] = test system: KM12 colon
# [22] = test system: LOX IMVI melanoma
# [23] = test system: M14 melanoma
# [24] = test system: MALME-3M melanoma
# [25] = test system: MCF7 breast
# [26] = test system: MDA-MB-231 breast
# [27] = test system: MDA-MB-435
# [28] = test system: MDA-MB-468 breast
# [29] = test system: MOLT-4 leukemia
# [30] = test system: NCI-H226 lung
# [31] = test system: NCI-H23 lung
# [32] = test system: NCI-H460 lung
# [33] = test system: NCI-H522 lung
# [34] = test system: NCI/ADR-RES ovarian
# [35] = test system: OVCAR-3 ovarian
# [36] = test system: OVCAR-4 ovarian
# [37] = test system: OVCAR-5 ovarian
# [38] = test system: OVCAR-8 ovarian
# [39] = test system: PC-3 prostate
# [40] = test system: RPMI-8226 leukemia
# [41] = test system: RXF 393 renal
# [42] = test system: SF-268 CNS
# [43] = test system: SF-295 CNS
# [44] = test system: SF-539 CNS
# [45] = test system: SK-MEL-2 melanoma
# [46] = test system: SK-MEL-28 melanoma
# [47] = test system: SK-MEL-5 melanoma
# [48] = test system: SK-OV-3 ovarian
# [49] = test system: SN12C renal
# [50] = test system: SNB-19 CNS
# [51] = test system: SNB-75 CNS
# [52] = test system: SR leukemia
# [53] = test system: SW-620 colon
# [54] = test system: T-47D breast
# [55] = test system: TK-10 renal
# [56] = test system: U251 CNS
# [57] = test system: UACC-62 melanoma
# [58] = test system: UO-31 renal
structure (smiles),measurement,setting,value
Cc1ccc(Nc2nnc(-c3c[nH]c4ccccc34)o2)c(C)c1,GI50,[1],768 nM
same,TGI,[1],11300 nM
same,GI50,[2],18200 nM
same,TGI,[2],56600 nM
same,GI50,[3],868 nM
same,TGI,[3],> 100000 nM
same,GI50,[4],564 nM
same,TGI,[4],30600 nM
same,GI50,[5],435 nM
same,TGI,[5],19900 nM
same,GI50,[6],483 nM
same,TGI,[6],38900 nM
same,GI50,[7],311 nM
same,TGI,[7],> 35100 nM
same,GI50,[8],447 nM
same,TGI,[8],2950 nM
same,GI50,[9],664 nM
same,TGI,[9],> 45300 nM
same,GI50,[10],455 nM
same,TGI,[10],> 73100 nM
same,GI50,[11],625 nM
same,TGI,[11],4560 nM
same,GI50,[12],645 nM
same,TGI,[12],29200 nM
same,GI50,[13],170 nM
same,TGI,[13],16700 nM
same,GI50,[14],274 nM
same,TGI,[14],17800 nM
same,GI50,[15],475 nM
same,TGI,[15],24300 nM
same,GI50,[16],8530 nM
same,TGI,[16],43600 nM
same,GI50,[17],333 nM
same,TGI,[17],9170 nM
same,GI50,[18],326 nM
same,TGI,[18],2780 nM
same,GI50,[19],569 nM
same,TGI,[19],20400 nM
same,GI50,[20],80.1 nM
same,TGI,[20],> 100000 nM
same,GI50,[21],435 nM
same,TGI,[21],14500 nM
same,GI50,[22],478 nM
same,TGI,[22],7430 nM
same,GI50,[23],324 nM
same,TGI,[23],16000 nM
same,GI50,[24],323 nM
same,TGI,[24],18800 nM
same,GI50,[25],283 nM
same,TGI,[25],13200 nM
same,GI50,[26],620 nM
same,TGI,[26],15900 nM
same,GI50,[27],46 nM
same,TGI,[27],250 nM
same,GI50,[28],300 nM
same,TGI,[28],1030 nM
same,GI50,[29],478 nM
same,TGI,[29],46200 nM
same,GI50,[30],1450 nM
same,TGI,[30],> 100000 nM
same,GI50,[31],445 nM
same,TGI,[31],12700 nM
same,GI50,[32],443 nM
same,TGI,[32],13600 nM
same,GI50,[33],163 nM
same,TGI,[33],1210 nM
same,GI50,[34],109 nM
same,TGI,[34],484 nM
same,GI50,[35],307 nM
same,TGI,[35],3530 nM
same,GI50,[36],14900 nM
same,TGI,[36],> 100000 nM
same,GI50,[37],756 nM
same,TGI,[37],24200 nM
same,GI50,[38],463 nM
same,TGI,[38],9100 nM
same,GI50,[39],583 nM
same,TGI,[39],> 100000 nM
same,GI50,[40],424 nM
same,TGI,[40],> 39100 nM
same,GI50,[41],375 nM
same,TGI,[41],7440 nM
same,GI50,[42],714 nM
same,TGI,[42],30900 nM
same,GI50,[43],236 nM
same,TGI,[43],3240 nM
same,GI50,[44],286 nM
same,TGI,[44],932 nM
same,GI50,[45],302 nM
same,TGI,[45],13300 nM
same,GI50,[46],639 nM
same,TGI,[46],31800 nM
same,GI50,[47],353 nM
same,TGI,[47],15000 nM
same,GI50,[48],502 nM
same,TGI,[48],23800 nM
same,GI50,[49],522 nM
same,TGI,[49],16500 nM
same,GI50,[50],512 nM
same,TGI,[50],43700 nM
same,GI50,[51],255 nM
same,TGI,[51],968 nM
same,GI50,[52],141 nM
same,TGI,[52],> 100000 nM
same,GI50,[53],325 nM
same,TGI,[53],> 100000 nM
same,GI50,[54],325 nM
same,TGI,[54],> 100000 nM
same,GI50,[55],4030 nM
same,TGI,[55],> 100000 nM
same,GI50,[56],394 nM
same,TGI,[56],15400 nM
same,GI50,[57],277 nM
same,TGI,[57],12200 nM
same,GI50,[58],530 nM
same,TGI,[58],57000 nM
